In PubChem BioAssay (NCI):
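Cells were grown in 96-well plates and exposed to each compound for 48 hours at five concentrations; endpoints were interpolated linearly between bracketing concentrations, or set to the highest concentration if not reached. TGI marks complete inhibition of growth.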

How the values were obtained:
Assay in all cases: NCI tumour cell line growth inhibition, 48 h
[1] = test system: DLD-1 colon
[2] = test system: OVCAR-3 ovarian
[3] = test system: OVCAR-8 ovarian
[4] = test system: NCI-H460 lung
[5] = test system: KM20L2 colon
[6] = test system: XF 498 CNS
[7] = test system: P388/ADR leukemia
[8] = test system: A549 NSCLC
[9] = test system: HCC-2998 colon
[10] = test system: SK-MEL-5 melanoma
[11] = test system: SF-539 CNS
[12] = test system: UACC-257 melanoma
[13] = test system: SK-MEL-28 melanoma
[14] = test system: K-562 leukemia
[15] = test system: SNB-78 CNS
[16] = test system: DMS 273 small cell lung
[17] = test system: KM12 colon
[18] = test system: MALME-3M melanoma
[19] = test system: HOP-92 NSCLC
[20] = test system: RPMI-8226 leukemia
[21] = test system: CCRF-CEM leukemia
[22] = test system: MCF7 breast
[23] = test system: HOP-62 NSCLC
[24] = test system: M19-MEL melanoma
[25] = test system: NCI-H226 lung
[26] = test system: NCI-H23 lung
[27] = test system: SN12C renal
[28] = test system: LOX IMVI melanoma
[29] = test system: SNB-19 CNS
[30] = test system: HOP-18 NSCLC
[31] = test system: IGROV1 ovarian
[32] = test system: SNB-75 CNS
[33] = test system: SK-OV-3 ovarian
[34] = test system: HCT-15 colon
[35] = test system: HL-60(TB) leukemia
[36] = test system: SF-295 CNS
[37] = test system: NCI/ADR-RES ovarian
[38] = test system: UO-31 renal
[39] = test system: EKVX NSCLC
[40] = test system: SF-268 CNS
[41] = test system: RXF 393 renal
[42] = test system: COLO 205 colon
[43] = test system: U251 CNS
[44] = test system: P388 leukemia
[45] = test system: HT29 colon
[46] = test system: NCI-H522 lung
[47] = test system: OVCAR-5 ovarian
[48] = test system: OVCAR-4 ovarian
[49] = test system: HCT-116 colon
[50] = test system: SK-MEL-2 melanoma
[51] = test system: MOLT-4 leukemia
[52] = test system: CAKI-1 renal
[53] = test system: SN12K1 renal
[54] = test system: SW-620 colon
[55] = test system: A498 renal
[56] = test system: UACC-62 melanoma
[57] = test system: ACHN renal
[58] = test system: TK-10 renal
[59] = test system: RXF-631 renal
[60] = test system: DMS 114 small cell lung
[61] = test system: SR leukemia
[62] = test system: 786-0 renal
[63] = test system: M14 melanoma
[64] = test system: LXFL 529 NSCLC

SMILES: CCn1c(=O)c(C(=O)O)c(Cl)c2cc3c(cc21)OCO3
- TGI [1]: > 100 µM
- TGI [2]: > 100 µM
- TGI [3]: > 100 µM
- TGI [4]: > 100 µM
- TGI [5]: > 100 µM
- TGI [6]: > 100 µM
- TGI [7]: > 100 µM
- TGI [8]: > 100 µM
- TGI [9]: > 100 µM
- TGI [10]: > 100 µM
- TGI [11]: > 100 µM
- TGI [12]: > 100 µM
- TGI [13]: > 100 µM
- TGI [14]: > 100 µM
- TGI [15]: > 100 µM
- TGI [16]: > 100 µM
- TGI [17]: > 100 µM
- TGI [18]: > 100 µM
- TGI [19]: > 100 µM
- TGI [20]: > 100 µM
- TGI [21]: > 100 µM
- TGI [22]: > 100 µM
- TGI [23]: > 100 µM
- TGI [24]: > 100 µM
- TGI [25]: > 100 µM
- TGI [26]: > 100 µM
- TGI [27]: > 100 µM
- TGI [28]: > 100 µM
- TGI [29]: > 100 µM
- TGI [30]: > 100 µM
- TGI [31]: > 100 µM
- TGI [32]: > 100 µM
- TGI [33]: > 100 µM
- TGI [34]: > 100 µM
- TGI [35]: > 100 µM
- TGI [36]: > 100 µM
- TGI [37]: > 100 µM
- TGI [38]: > 100 µM
- TGI [39]: > 100 µM
- TGI [40]: > 100 µM
- TGI [41]: > 100 µM
- TGI [42]: > 100 µM
- TGI [43]: > 100 µM
- TGI [44]: > 100 µM
- TGI [45]: > 100 µM
- TGI [46]: > 100 µM
- TGI [47]: > 100 µM
- TGI [48]: > 100 µM
- TGI [49]: > 100 µM
- TGI [50]: > 100 µM
- TGI [51]: > 100 µM
- TGI [52]: > 100 µM
- TGI [53]: > 100 µM
- TGI [54]: > 100 µM
- TGI [55]: > 100 µM
- TGI [56]: > 100 µM

SMILES: CCCCCCCCCCCCCCCC(=O)OCCOCCOCCOCCOCCOC(=O)CCCCCCCCCCCCCCC
- TGI [1]: > 100 µM
- TGI [2]: > 100 µM
- TGI [3]: > 100 µM
- TGI [4]: > 100 µM
- TGI [5]: > 100 µM
- TGI [57]: > 100 µM
- TGI [8]: > 100 µM
- TGI [9]: > 100 µM
- TGI [58]: > 100 µM
- TGI [10]: > 100 µM
- TGI [59]: > 100 µM
- TGI [12]: > 100 µM
- TGI [13]: > 100 µM
- TGI [14]: > 100 µM
- TGI [15]: > 100 µM
- TGI [16]: > 100 µM
- TGI [17]: > 100 µM
- TGI [18]: > 100 µM
- TGI [19]: > 100 µM
- TGI [20]: > 100 µM
- TGI [21]: > 100 µM
- TGI [23]: > 100 µM
- TGI [60]: > 100 µM
- TGI [24]: > 100 µM
- TGI [25]: > 100 µM
- TGI [26]: > 100 µM
- TGI [27]: > 100 µM
- TGI [61]: > 100 µM
- TGI [28]: > 100 µM
- TGI [29]: > 100 µM
- TGI [30]: > 100 µM
- TGI [31]: > 100 µM
- TGI [33]: > 100 µM
- TGI [34]: > 100 µM
- TGI [35]: > 100 µM
- TGI [36]: > 100 µM
- TGI [62]: > 100 µM
- TGI [38]: > 100 µM
- TGI [39]: > 100 µM
- TGI [40]: > 100 µM
- TGI [41]: > 100 µM
- TGI [42]: > 100 µM
- TGI [43]: > 100 µM
- TGI [45]: > 100 µM
- TGI [63]: > 100 µM
- TGI [46]: > 100 µM
- TGI [64]: > 100 µM
- TGI [47]: > 100 µM
- TGI [48]: > 100 µM
- TGI [49]: > 100 µM
- TGI [50]: > 100 µM
- TGI [51]: > 100 µM
- TGI [52]: > 100 µM
- TGI [54]: > 100 µM
- TGI [55]: > 100 µM
- TGI [56]: > 100 µM

SMILES: COc1c(I)c(OC)c2c(c1I)O[C@@H]1OCC[C@H]21
- TGI [1]: > 100 µM
- TGI [2]: 91.7 µM
- TGI [3]: > 100 µM
- TGI [4]: 56.2 µM
- TGI [5]: > 100 µM
- TGI [6]: 66.4 µM
- TGI [57]: > 100 µM
- TGI [8]: > 100 µM
- TGI [9]: 78.6 µM
- TGI [58]: > 100 µM
- TGI [10]: 27.2 µM
- TGI [59]: > 100 µM
- TGI [11]: > 100 µM
- TGI [12]: 67.1 µM
- TGI [13]: 97 µM
- TGI [14]: > 100 µM
- TGI [15]: > 100 µM
- TGI [16]: 56.5 µM
- TGI [17]: 82.6 µM
- TGI [18]: 73.4 µM
- TGI [19]: 67.1 µM
- TGI [20]: > 100 µM
- TGI [21]: > 100 µM
- TGI [23]: > 100 µM
- TGI [60]: 70.5 µM
- TGI [24]: 57.7 µM
- TGI [25]: > 100 µM
- TGI [26]: > 100 µM
- TGI [27]: > 100 µM
- TGI [61]: 45.2 µM
- TGI [28]: > 100 µM
- TGI [29]: > 100 µM
- TGI [30]: 81 µM
- TGI [31]: > 100 µM
- TGI [32]: 82.9 µM
- TGI [33]: > 100 µM
- TGI [34]: > 100 µM
- TGI [35]: 55.6 µM
- TGI [36]: > 100 µM
- TGI [62]: > 100 µM
- TGI [38]: 66.3 µM
- TGI [39]: > 100 µM
- TGI [41]: 72.4 µM
- TGI [42]: 57.8 µM
- TGI [43]: > 100 µM
- TGI [45]: > 100 µM
- TGI [63]: 50.5 µM
- TGI [64]: 63.7 µM
- TGI [47]: > 100 µM
- TGI [48]: 84.6 µM
- TGI [49]: > 100 µM
- TGI [50]: 41.2 µM
- TGI [51]: 54.4 µM
- TGI [52]: 46.1 µM
- TGI [54]: > 100 µM
- TGI [55]: 86 µM
- TGI [56]: > 100 µM

SMILES: CC(=O)OCC1OC(NC(=O)N(CCCl)N=O)C(OC(C)=O)C(OC(C)=O)C1OC(C)=O (stereo not given)
- TGI [1]: > 100 µM
- TGI [2]: > 100 µM
- TGI [3]: > 100 µM
- TGI [4]: > 100 µM
- TGI [5]: > 100 µM
- TGI [6]: > 100 µM
- TGI [7]: > 100 µM
- TGI [8]: > 100 µM
- TGI [9]: > 100 µM
- TGI [10]: > 31.6 µM
- TGI [11]: > 100 µM
- TGI [12]: > 100 µM
- TGI [13]: > 100 µM
- TGI [14]: > 100 µM
- TGI [15]: > 100 µM
- TGI [16]: > 100 µM
- TGI [17]: > 100 µM
- TGI [18]: > 100 µM
- TGI [19]: > 100 µM
- TGI [20]: > 100 µM
- TGI [21]: > 100 µM
- TGI [22]: > 100 µM
- TGI [23]: > 100 µM
- TGI [60]: > 100 µM
- TGI [24]: > 100 µM
- TGI [26]: > 100 µM
- TGI [27]: > 100 µM
- TGI [28]: > 100 µM
- TGI [29]: > 100 µM
- TGI [30]: > 100 µM
- TGI [31]: > 100 µM
- TGI [32]: > 100 µM
- TGI [33]: > 100 µM
- TGI [34]: > 100 µM
- TGI [35]: > 100 µM
- TGI [36]: > 100 µM
- TGI [37]: > 100 µM
- TGI [38]: > 100 µM
- TGI [39]: > 100 µM
- TGI [40]: > 100 µM
- TGI [41]: > 100 µM
- TGI [42]: > 100 µM
- TGI [43]: > 100 µM
- TGI [44]: > 100 µM
- TGI [45]: > 100 µM
- TGI [46]: > 100 µM
- TGI [47]: > 100 µM
- TGI [48]: > 100 µM
- TGI [49]: > 100 µM
- TGI [50]: > 100 µM
- TGI [51]: > 31.6 µM
- TGI [52]: > 100 µM
- TGI [53]: > 100 µM
- TGI [54]: > 100 µM
- TGI [55]: > 100 µM
- TGI [56]: > 100 µM
